{"source": "patent US20060128660A1", "about": "“FK228 analogs and methods of making and using the same” (Wisconsin Alumni Research Foundation, priority 2004, published 2006)", "key": {"[1]": {"system": "Trx", "conditions": "human primary breast and colon tumor tissues, Butler et al. 2002; cited from earlier work"}, "[2]": {"system": "HDAC", "experiment": "Western blot analysis of histones (tetra-AcLys H4) isolated from treated Drosophila S2 cells", "format": "cell-based", "description": "Drosophila S2 cells can be cultured in Schneider's medium and grown as previously described by Wade and co-workers for periods ranging from 12 h to 96 h (Ballestar et al., 2001, Eur. J. Biochem. 268: 5397-5406). Cells may then be lysed and nuclear extracts prepared according to Thompson and co-workers (Steffan, 2001, Nature 413: 739-743). Lysates are then be subjected to differing concentrations of HDAC inhibitors and/or reductants (Barlow et al., 2001, Exp. Cell Res. 265: 90-103).\nH2B detection was used to ensure equivalent protein loading to each well. […] Cells in all reactions were incubated at ambient temperature in media that contained 20 μM of each respective synthetic agent. Incubations were conducted for either 48 or 72 hours prior to nuclei isolation and processing.\nH2B detection was used to ensure equivalent protein loading to each well. […] Lane 1 is a dioxane solvent control and concentrations of “drug” in cell medium are indicated above each lane. All cells were treated for a period of 48 hours at ambient temperature prior to nuclei isolation and processing.\nBriefly, 2×10^6 cells in 10 mL medium are brought to 2×10^−5 M in synthetic intermediate and then allowed to incubate at ambient temperature for specified times. […] Histone H2B was detected in each case in order to verify equal protein loadings for each lane."}}}
{"smiles": "O=C(CCCCCCC(=O)Nc1ccccc1)NO", "note": "[SAHA]", "values": [{"measurement": "effect on Trx", "setting": "[1]", "result": "down regulates Trx"}]}
{"smiles": "O=C(CCCCCS)NC(CO)CSCc1ccccc1", "note": "(stereo not drawn) [compound 33]", "values": [{"measurement": "acetylated H4 in histones isolated from treated cells (Western blot)", "setting": "[2]; 20 μM, 48 or 72 hours, ambient temperature (FIG. 3A)", "result": "a significant amount of acetylated H4"}, {"measurement": "cellular HDAC inhibition (Western blot data)", "setting": "[2]; at −20 μM concentration", "result": "potent cellular HDAC inhibitors"}]}
